Columns and labels:
Assay in all cases: MIC, broth microdilution (CLSI), substance alone or ATB combined with compound at 4 or 8 μg/mL
ECO 190317 = assay type: cell-based, E. coli; details: for MIC ATB combined with Example: Example @8 μg/ml
Outline: (§1)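 Antibiotic MICs were determined in presence of fixed compound at 4 or 8 μg/mL, and compound MICs alone, by visual growth inhibition. Inoculum 5·10^5 CFU/mL in ca-MHB, incubated 35 °C for 16-20 h per CLSI-M7-A7. Glucose-6-phosphate (25 μg/ml) added when fosfomycin was tested.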

ECO UFR39 = assay type: cell-based, E. coli; details: for MIC ATB combined with Example / MIC ATB combined with Example compound: ECO UFR39; for MIC ATB combined with Example: Example @8 μg/ml; for MIC ATB combined with Example compound: compound @8 μg/ml
Outline: as §1

KPN 6299 = assay type: cell-based, K. pneumoniae; details: for MIC ATB combined with Example: Example @8 μg/ml
Outline: as §1

KPN BAA-1898 = assay type: cell-based, K. pneumoniae; details: for MIC ATB combined with Example: Example @8 μg/ml
Outline: as §1

KPN UFR42 = assay type: cell-based, K. pneumoniae; details: for MIC ATB combined with Example / MIC ATB combined with Example compound: KPN UFR42; for MIC ATB combined with Example: Example @8 μg/ml; for MIC ATB combined with Example compound: compound @8 μg/ml
Outline: as §1

ECL P99 = assay type: cell-based, E. cloacae; details: for MIC ATB combined with Example: Example @8 μg/ml
Outline: as §1

PAE 105250 = assay type: cell-based, P. aeruginosa; details: PAE 105250; for MIC ATB combined with Example: Example @8 μg/ml; for MIC ATB combined with Example compound: compound @8 μg/ml
Outline: as §1

PAE UFR48 = assay type: cell-based, P. aeruginosa; details: PAE UFR48; for MIC ATB combined with Example: Example @8 μg/ml; for MIC ATB combined with Example compound: compound @8 μg/ml
Outline: as §1

PAE UFR90 = assay type: cell-based, P. aeruginosa; details: PAE UFR90; for MIC ATB combined with Example: Example @8 μg/ml; for MIC ATB combined with Example compound: compound @8 μg/ml
Outline: as §1

SAU 29213 = assay type: cell-based, S. aureus; details: for MIC ATB combined with Example / MIC ATB combined with Example compound: SAU 29213; for MIC ATB combined with Example: Example @8 μg/ml; for MIC ATB combined with Example compound: compound @8 μg/ml
Outline: as §1

SPN 49619 = assay type: cell-based, S. pneumoniae; details: for MIC ATB combined with Example / MIC ATB combined with Example compound: SPN 49619; for MIC ATB combined with Example: Example @8 μg/ml; for MIC ATB combined with Example compound: compound @8 μg/ml
Outline: as §1

`O=C1N2CC(n3cccn3)=CC(C2)N1OC(F)(F)C(=O)[O-].[Li+]` (stereo not shown) [Example 13, lithium difluoro-(7-oxo-3-pyrazol-1-yl-1,6-diaza-bicyclo[3.2.1]oct-3-en-6-yloxy)-acetate] was tested, and the “MIC ATB combined with Example” value (ECO 190317; ATB ATM, ECO 190317) was under 0.031 µg/mL, the “MIC ATB combined with Example” value (ECO 190317; ATB FEP, ECO 190317) was under 0.031 µg/mL and the “MIC ATB combined with Example” value (ECO 190317; ATB FOS, ECO 190317) was under 0.125 µg/mL. The “MIC ATB combined with Example” value (ECO 190317; ATB MEM, ECO 190317) was under 0.031 µg/mL, the “MIC ATB combined with Example” value (ECO 190317; ATB PIP, ECO 190317) was under 0.031 µg/mL and the MIC (ECO 190317; Escherichia coli) was 4 µg/mL. For the same compound, the “MIC ATB combined with Example compound” value (ECO 190317; MIC of CIP, compound @8 μg/ml, ECO 190317) was under 0.031 µg/mL, the “MIC ATB combined with Example” value (ECO UFR39; ATB ATM) was under 0.031 µg/mL and the “MIC ATB combined with Example” value (ECO UFR39; ATB FEP) was under 0.031 µg/mL. The “MIC ATB combined with Example” value (ECO UFR39; ATB FOS) was under 0.125 µg/mL, the “MIC ATB combined with Example” value (ECO UFR39; ATB MEM) was “<=0.031 μg/mL” and the “MIC ATB combined with Example” value (ECO UFR39; ATB PIP) was under 0.031 µg/mL. The MIC (ECO UFR39; Escherichia coli) was 8 µg/mL, the “MIC ATB combined with Example compound” value (ECO UFR39; MIC of CIP) was under 0.031 µg/mL and the “MIC ATB combined with Example compound” value (ECO UFR39; MIC of CPO) was under 0.031 µg/mL. The “MIC ATB combined with Example” value (KPN 6299; ATB ATM) was “<=0.031 μg/mL”, the “MIC ATB combined with Example” value (KPN 6299; ATB FEP) was 0.063 µg/mL and the “MIC ATB combined with Example” value (KPN 6299; ATB FOS) was 8 µg/mL. For the same compound, the “MIC ATB combined with Example” value (KPN 6299; ATB MEM) was “<=0.031 μg/mL”, the “MIC ATB combined with Example” value (KPN 6299; ATB PIP) was 0.5 µg/mL and the “MIC ATB combined with Example compound” value (KPN 6299; MIC of CIP, compound @8 μg/ml) was 32 µg/mL. For the same compound, the “MIC ATB combined with Example” value (KPN BAA-1898; ATB ATM, KPN BAA-1898) was 4 µg/mL, the “MIC ATB combined with Example” value (KPN BAA-1898; ATB FEP, KPN BAA-1898) was 0.25 µg/mL and the “MIC ATB combined with Example” value (KPN BAA-1898; ATB FOS, KPN BAA-1898) was 4 µg/mL. For the same compound, the “MIC ATB combined with Example” value (KPN BAA-1898; ATB MEM, KPN BAA-1898) was 0.25 µg/mL, the “MIC ATB combined with Example” value (KPN BAA-1898; ATB PIP, KPN BAA-1898) was 32 µg/mL and the MIC (KPN BAA-1898; Klebsiella pneumoniae, BAA1898) was 16 µg/mL. For the same compound, the “MIC ATB combined with Example compound” value (KPN BAA-1898; MIC of CIP, compound @8 μg/ml, KPN BAA-1898) was 16 µg/mL, the “MIC ATB combined with Example” value (KPN UFR42; ATB ATM) was 0.125 µg/mL and the “MIC ATB combined with Example” value (KPN UFR42; ATB FEP) was “<=0.031 μg/mL”. For the same compound, the “MIC ATB combined with Example” value (KPN UFR42; ATB FOS) was 4 µg/mL, the “MIC ATB combined with Example” value (KPN UFR42; ATB MEM) was over 32 µg/mL and the “MIC ATB combined with Example” value (KPN UFR42; ATB PIP) was over 32 µg/mL. The MIC (KPN UFR42; Klebsiella pneumoniae) was 16 µg/mL, the “MIC ATB combined with Example compound” value (KPN UFR42; MIC of CIP) was over 32 µg/mL and the “MIC ATB combined with Example compound” value (KPN UFR42; MIC of CPO) was 32 µg/mL. The “MIC ATB combined with Example” value (ECL P99; ATB ATM, ECL P99) was 2 µg/mL, the “MIC ATB combined with Example” value (ECL P99; ATB FEP, ECL P99) was “<=0.031 μg/mL” and the “MIC ATB combined with Example” value (ECL P99; ATB FOS, ECL P99) was 32 µg/mL. For the same compound, the “MIC ATB combined with Example” value (ECL P99; ATB MEM, ECL P99) was “<=0.031 μg/mL”, the “MIC ATB combined with Example” value (ECL P99; ATB PIP, ECL P99) was 4 µg/mL and the MIC (ECL P99; Enterobacter cloacae) was 16 µg/mL. The “MIC ATB combined with Example compound” value (ECL P99; MIC of CIP, compound @8 μg/ml, ECL P99) was “<=0.031 μg/mL”, the “MIC ATB combined with Example” value (PAE 105250; ATB ATM) was 8 µg/mL and the “MIC ATB combined with Example” value (PAE 105250; ATB FEP) was 8 µg/mL. The “MIC ATB combined with Example” value (PAE 105250; ATB FOS) was over 128 µg/mL, the “MIC ATB combined with Example” value (PAE 105250; ATB MEM) was 2 µg/mL and the “MIC ATB combined with Example” value (PAE 105250; ATB PIP) was 32 µg/mL. For the same compound, the “MIC ATB combined with Example compound” value (PAE 105250; MIC of CIP) was 0.063 µg/mL, the “MIC ATB combined with Example compound” value (PAE 105250; MIC of CPO) was 16 µg/mL and the “MIC ATB combined with Example” value (PAE UFR48; ATB ATM) was 8 µg/mL. For the same compound, the “MIC ATB combined with Example” value (PAE UFR48; ATB FEP) was 32 µg/mL, the “MIC ATB combined with Example” value (PAE UFR48; ATB FOS) was 16 µg/mL and the “MIC ATB combined with Example” value (PAE UFR48; ATB MEM) was 0.5 µg/mL. For the same compound, the “MIC ATB combined with Example” value (PAE UFR48; ATB PIP) was 32 µg/mL, the “MIC ATB combined with Example compound” value (PAE UFR48; MIC of CIP) was 4 µg/mL and the “MIC ATB combined with Example compound” value (PAE UFR48; MIC of CPO) was over 32 µg/mL. The “MIC ATB combined with Example” value (PAE UFR90; ATB ATM) was 16 µg/mL, the “MIC ATB combined with Example” value (PAE UFR90; ATB FEP) was 8 µg/mL and the “MIC ATB combined with Example” value (PAE UFR90; ATB FOS) was 8 µg/mL. For the same compound, the “MIC ATB combined with Example” value (PAE UFR90; ATB MEM) was 2 µg/mL, the “MIC ATB combined with Example” value (PAE UFR90; ATB PIP) was over 32 µg/mL and the “MIC ATB combined with Example compound” value (PAE UFR90; MIC of CIP) was 1 µg/mL. For the same compound, the “MIC ATB combined with Example compound” value (PAE UFR90; MIC of CPO) was 16 µg/mL, the “MIC ATB combined with Example” value (SAU 29213; ATB ATM) was over 32 µg/mL and the “MIC ATB combined with Example” value (SAU 29213; ATB FEP) was 2 µg/mL. The “MIC ATB combined with Example” value (SAU 29213; ATB FOS) was 0.5 µg/mL, the “MIC ATB combined with Example” value (SAU 29213; ATB MEM) was “<=0.031 μg/mL” and the “MIC ATB combined with Example” value (SAU 29213; ATB PIP) was 1 µg/mL. For the same compound, the “MIC ATB combined with Example compound” value (SAU 29213; MIC of CIP) was 0.25 µg/mL, the “MIC ATB combined with Example compound” value (SAU 29213; MIC of CLI) was 0.063 µg/mL and the “MIC ATB combined with Example compound” value (SAU 29213; MIC of CPO) was 0.5 µg/mL. For the same compound, the “MIC ATB combined with Example compound” value (SAU 29213; MIC of DAP) was 1 µg/mL, the “MIC ATB combined with Example compound” value (SAU 29213; MIC of ERY) was 0.125 µg/mL and the “MIC ATB combined with Example compound” value (SAU 29213; MIC of LZD) was 1 µg/mL. For the same compound, the “MIC ATB combined with Example compound” value (SAU 29213; MIC of RIF) was 0.0078 µg/mL, the “MIC ATB combined with Example compound” value (SAU 29213; MIC of SYN) was 0.25 µg/mL and the “MIC ATB combined with Example compound” value (SAU 29213; MIC of VAN) was 1 µg/mL. The MIC (SAU 29213; Staphylococcus aureus, MSSA) was 32 µg/mL, the “MIC ATB combined with Example” value (SPN 49619; ATB ATM) was over 32 µg/mL and the “MIC ATB combined with Example” value (SPN 49619; ATB FEP) was 0.063 µg/mL. The “MIC ATB combined with Example” value (SPN 49619; ATB FOS) was 32 µg/mL, the “MIC ATB combined with Example” value (SPN 49619; ATB MEM) was “<=0.031 μg/mL” and the “MIC ATB combined with Example” value (SPN 49619; ATB PIP) was 0.5 µg/mL. For the same compound, the “MIC ATB combined with Example compound” value (SPN 49619; MIC of CIP) was 0.5 µg/mL, the “MIC ATB combined with Example compound” value (SPN 49619; MIC of CLI) was 0.063 µg/mL and the “MIC ATB combined with Example compound” value (SPN 49619; MIC of CPO) was “<=0.031 μg/mL”. For the same compound, the “MIC ATB combined with Example compound” value (SPN 49619; MIC of DAP) was 0.5 µg/mL, the “MIC ATB combined with Example compound” value (SPN 49619; MIC of ERY) was 0.063 µg/mL and the “MIC ATB combined with Example compound” value (SPN 49619; MIC of LZD) was 1 µg/mL. The “MIC ATB combined with Example compound” value (SPN 49619; MIC of RIF) was 0.0078 µg/mL, the “MIC ATB combined with Example compound” value (SPN 49619; MIC of SYN) was 0.5 µg/mL and the “MIC ATB combined with Example compound” value (SPN 49619; MIC of VAN) was 0.25 µg/mL. The MIC (SPN 49619; Streptococcus pneumoniae) was over 32 µg/mL.
